Measured values from US10059695B2, “Cot modulators and methods of use thereof” (Gilead Sciences, Inc., priority 2016, dated 2018).

Columns and labels:
Human Cot = Human Cot (Homo sapiens (Human), UniProt P41279); assay: High Throughput Cot Biochemical Assay (KinEASE TR-FRET); details: recombinant human Cot catalytic domain, 400 μM ATP
Method: Example 24: High Throughput Cot Biochemical Assay
Human Cot enzyme activity was measured using KinEASE (Cisbio), a time-resolved fluorescence resonance energy transfer (TR-FRET) immunoassay. In this assay, Cot-catalyzes the phosporylation of a XL665-labeled peptide substrate. Europium conjugated […] specific antibody binds the resulting phosphorylated peptide. Formation of phosphorylated peptide is quantified by TR-FRET with Europium as the donor and XL665 the acceptor in a 2-step endpoint assay. Purified recombinant human Cot catalytic domain (30-397 amino acids) was purchased from Carna Biosciences. In brief, test compounds serially diluted in DMSO were delivered into Proxy white, low volume, 384 well plates using the Echo 550 acoustic liquid dispenser (Labcyte®). Cot enzyme and substrates were dispensed into assay plates using a Multi-Flo (Bio-Tek Instruments). The standard 5 μL reaction mixture contained 400 μM ATP, 1 μM STK3 peptide, 5 nM of Cot in reaction buffer (10 mM MOPS, pH 7.0, 0.02% NaN3, 0.5 mg/mL BSA, 10 mM MgOAc, 1 mM DTT, 0.025% NP-40, 1.5% glycerol) and 0.1% DMSO. After 2.5 hrs of incubation at room temperature, 5 μL of Stop and Detect Solution (1:200 Europium Cryptate labeled anti-phosphorylated peptide antibody solution and 125 nM strepavidin-XL665 Tracer in a 50 mM Hepes pH 7.0 detection buffer containing sufficient EDTA) was added. The plate was then further incubated for 120 minutes at room temperature and read using an Envision 2103 Multilabeled reader (PerkinElmer) with excitation/emission/FRET emission at 340 nm/615 nm/665 nm, respectively. Fluorescence intensities at 615 nm and 665 nm emission wavelengths were expressed as a ratio (665 nm/615 nm).

TNFα = assay: Cot Monocyte TNFα Cell Based Assay; details: LPS-stimulated cryopreserved human monocytes, TNFα by TR-FRET
Method: Example 23: Cot Monocyte TNFα Cell Based Assay
Cryopreserved human monocytes (Stem Cell Technologies) were thawed, diluted in RPMI with Glutamax (10 mM HEPES, 1× Pen-Strep, 55 μM β-mercaptoethanol, 1 mM Sodium pyruvate) media containing 10% FBS to 0.125×10^6 cells/ml and recovered at 37° C. for 2 hours. The cell suspension was then plated at a density of 5,000 cells/well onto black 384 well Greiner clear bottom plates. Plates were pre-spotted with test compounds and serially diluted in DMSO where 200 nL/well were delivered using the Echo 550 acoustic liquid dispenser (Labcyte®) for a final DMSO concentration of 0.5%. Plated cells were treated with compound for 1 hour at 37° C. Cells were then stimulated with 50 μg/ml of LPS (Sigma) excluding outside columns of plate used for unstimulated cell control wells. Cells were incubated for an additional 4 hours at 37° C. Cells were then spun out of the media and 5 μl of sample were taken and analyzed for total TNFα content using the TR-FRET Human TNFα detection system (CisBio). This system utilizes two labeled antibodies (cryptate and XL665) that bind to two different epitopes of the TNFα molecule and produce FRET signal proportional to the concentration of TNFα in the sample. Detection antibodies are mixed 50:50 and 5 μL were dispensed into each well. Plates were covered with clear seals and incubated at room temp overnight. The following morning plates were read using an Envision 2103 Multilabeled reader (PerkinElmer) with excitation/emission/FRET emission at 340 nm/615 nm/665 nm, respectively. Fluorescence intensities at 615 nm and 665 nm emission wavelengths were expressed as a ratio (665 nm/615 nm). Percent of control was calculated as follows: % Control=100×(RatioSample−Ratio0% stimulation)/(Ratio100% Stimulation−Ratio0% Stimulation) where unstimulated cells (0% stimulation) were the negative control and stimulated cells (100% stimulation) were used as the positive control.

Sequence of Human Cot (P41279 30-397): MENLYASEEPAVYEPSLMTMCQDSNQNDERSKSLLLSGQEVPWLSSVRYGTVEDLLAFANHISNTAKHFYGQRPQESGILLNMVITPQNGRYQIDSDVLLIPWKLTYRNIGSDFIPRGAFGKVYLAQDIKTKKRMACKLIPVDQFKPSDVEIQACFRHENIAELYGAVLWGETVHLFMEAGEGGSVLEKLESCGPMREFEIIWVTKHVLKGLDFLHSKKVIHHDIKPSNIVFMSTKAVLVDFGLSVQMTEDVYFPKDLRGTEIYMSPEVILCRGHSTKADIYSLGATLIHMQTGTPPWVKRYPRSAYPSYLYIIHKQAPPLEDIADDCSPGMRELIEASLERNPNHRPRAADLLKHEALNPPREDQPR

Row | Structure (SMILES) | IC50 (Human Cot) [nM] | EC50 (TNFα) [nM]
1 | Cc1nc(F)ccc1[C@H](Nc1cc(Cl)c2ncnc(NCC(C)(C)C)c2c1)c1cn(C2(C(F)F)CC2)nn1 [I-21, (S)-8-chloro-N^6-((1-(1-(difluoromethyl)cyclopropyl)-1H-1,2,3-triazol-4-yl)(6-fluoro-2-melhylpyridin-3-yl)methyl)-N^4-neopentylquinazoline-4,6-diamine] | 1.9 | 28
2 | Cn1ccc2c([C@H](Nc3cc(C#N)c4ncnc(NCC(C)(C)C)c4c3)c3cn(C4(C(F)F)CC4)nn3)cccc2c1=O [I-24, (S)-6-(((1-(1-(difluoromethyl)cyclopropyl)-1H-1,2,3-triazol-4-yl)(2-methyl-1-oxo-1,2-dihydroisoquinolin-5-yl)methyl)amino)-4-(neopentylamino) quinazoline-8-carbonitrile] | 1.2 | 11.3
3 | CC(C)(C)CNc1ncnc2c(C#N)cc(N[C@H](c3cn(C4(C(F)(F)F)CC4)nn3)c3cccc4ncsc34)cc12 [I-17, (S)-6-((benzo[d]thiazol-7-yl(1-(1-(trifluoromethyl)cyclopropyl)-1H-1,2,3-triazol-4-yl)methyl)amino)-4-(neopentylamino) quinazoline-8-carbonitrile] | 3.3 | 59
4 | [2H][C@](Nc1cc(Cl)c2ncnc(N[C@H](CCC#N)c3ccccc3)c2c1)(c1ccc(F)cc1)c1cn(C2CC2)nn1 [I-11, (R)-4-((8-chloro-6-(((S)-(1-cyclopropyl-1H-1,2,3-triazol-4-yl)(4-fluorophenyl)methyl-d)amino)quinazolin-4-yl)amino)-4-phenylbutanenitrile] | 46 | 671
5 | CCN1CCC(n2cc([C@@H](Nc3cc(Cl)c4ncnc(Nc5ccc(F)c(Cl)c5)c4c3)c3ccc(Cl)cc3)nn2)CC1 [II-10, (S)-8-chloro-N^4-(3-chloro-4-fluorophenyl)-N^6-((4-chlorophenyl)(1-(1-ethylpiperidin-4-yl)-1H-1,2,3-triazol-4-yl)methyl) quinazoline-4,6-diamine] | 17 | 527

Next, values leading:

Row | IC50 (Human Cot) [nM] | EC50 (TNFα) [nM] | Structure (SMILES)
6 | 276 | 4230 | [2H][C@](c1ccc(F)cc1)(c1cn(C2CC2)nn1)N(CC)c1ccc2ncnc(NCC(C)(C)C)c2c1 [I-6, (S)-N6-((1-cyclopropyl-1H-1,2,3-triazol-4-yl)(4-fluorophenyl)methyl-d)-N6-ethyl-N4-neopentylquinazoline-4,6-diamine]
7 | 2.6 | 82 | [2H][C@](Nc1cc(Br)c2ncnc(NCC(C)(C)C)c2c1)(c1ccc(F)cc1)c1cn(C2CC2)nn1 [I-15, (S)-8-bromo-N6-((1-cyclopropyl-1H-1,2,3-triazol-4-yl)(4-fluorophenyl)methyl-d)-N4-neopentylquinazoline-4,6-diamine]
8 | 11 | 296 | [2H][C@](Nc1ccc2ncnc(NCC3(C)CCOCC3)c2c1)(c1ccc(F)cc1)c1cn(C2CC2)nn1 [I-3, (S)-N^6-((1-cyclopropyl-1H-1,2,3-triazol-4-yl)(4-fluorophenyl)methyl-d)-N^4-((4-methyltetrahydro-2H-pyran-4-yl)methyl)quinazoline-4,6-diamine]
9 | 74 | 645 | [2H][C@](Nc1ccc2ncnc(Nc3cnc(F)c(F)c3)c2c1)(c1ccc(F)cc1)c1cn(C2CC2)nn1 [II-11, (S)-N^6-((1-cyclopropyl-1H-1,2,3-triazol-4-yl)(4-fluorophenyl)methyl-d)-N^4-(5,6-difluoropyridin-3-yl)quinazoline-4,6-diamine]
10 | 2.6 | 102 | [2H][C@](Nc1ccc2ncnc(NCC(C)(C)C)c2c1)(c1cccc(C#N)c1)c1cn(C2CC2)nn1 [I-7, (S)-3-((1-cyclopropyl-1H-1,2,3-triazol-4-yl)((4-(neopentylamino)quinazolin-6-yl)amino)methyl-d)benzonitrile]
11 | 3.1 | 46 | [2H][C@](Nc1cc(Cl)c2ncnc(NCC(C)(C)C)c2c1)(c1ccc(F)cc1)c1cn(C2(CF)CC2)nn1 [I-16, (S)-8-chloro-N^6-((1-(1-(fluoromethyl)cyclopropyl)-1H-1,2,3-triazol-4-yl)(4-fluorophenyl)methyl-d)-N^4-neopentylquinazoline-4,6-diamine]
